Test results: article PMC11124822, “Discovery and Anticancer Screening of Novel Oxindole-Based Derivative Bearing Pyridyl Group as Potent and Selective Dual FLT3/CDK2 Kinase Inhibitor” (Pharmaceuticals, 2024)

Experiments:
CDK2 = target: T1, CDK2 (Homo sapiens, UniProt P24941); test: Z'-LYTE kinase assay; assay type: biochemical
T1 construct: purchased Invitrogen/Life Technologies
Description: (§1) The Z’-LYTE® technology, which relies on FRET (Fluorescence Resonance Energy Transfer) from Invitrogen/Life Technologies, was employed for this evaluation for all kinases except VEGFR-2. The VEGFR-2 kinase assay was conducted in a 96-well streptavidin-coated plate using a recombinant human VEGFR-2/KDR ELISA kit, following the manufacturer’s instructions. […] Statistical significance was assessed using one-way analysis of variance (ANOVA), followed by the Dunnett test; data are represented as means ± SD.

FLT3 = target: T2, FLT3 (Homo sapiens, UniProt P36888); test: Z'-LYTE kinase assay; assay type: biochemical
T2 construct: purchased Invitrogen/Life Technologies
T2 sequence (P36888 27-993): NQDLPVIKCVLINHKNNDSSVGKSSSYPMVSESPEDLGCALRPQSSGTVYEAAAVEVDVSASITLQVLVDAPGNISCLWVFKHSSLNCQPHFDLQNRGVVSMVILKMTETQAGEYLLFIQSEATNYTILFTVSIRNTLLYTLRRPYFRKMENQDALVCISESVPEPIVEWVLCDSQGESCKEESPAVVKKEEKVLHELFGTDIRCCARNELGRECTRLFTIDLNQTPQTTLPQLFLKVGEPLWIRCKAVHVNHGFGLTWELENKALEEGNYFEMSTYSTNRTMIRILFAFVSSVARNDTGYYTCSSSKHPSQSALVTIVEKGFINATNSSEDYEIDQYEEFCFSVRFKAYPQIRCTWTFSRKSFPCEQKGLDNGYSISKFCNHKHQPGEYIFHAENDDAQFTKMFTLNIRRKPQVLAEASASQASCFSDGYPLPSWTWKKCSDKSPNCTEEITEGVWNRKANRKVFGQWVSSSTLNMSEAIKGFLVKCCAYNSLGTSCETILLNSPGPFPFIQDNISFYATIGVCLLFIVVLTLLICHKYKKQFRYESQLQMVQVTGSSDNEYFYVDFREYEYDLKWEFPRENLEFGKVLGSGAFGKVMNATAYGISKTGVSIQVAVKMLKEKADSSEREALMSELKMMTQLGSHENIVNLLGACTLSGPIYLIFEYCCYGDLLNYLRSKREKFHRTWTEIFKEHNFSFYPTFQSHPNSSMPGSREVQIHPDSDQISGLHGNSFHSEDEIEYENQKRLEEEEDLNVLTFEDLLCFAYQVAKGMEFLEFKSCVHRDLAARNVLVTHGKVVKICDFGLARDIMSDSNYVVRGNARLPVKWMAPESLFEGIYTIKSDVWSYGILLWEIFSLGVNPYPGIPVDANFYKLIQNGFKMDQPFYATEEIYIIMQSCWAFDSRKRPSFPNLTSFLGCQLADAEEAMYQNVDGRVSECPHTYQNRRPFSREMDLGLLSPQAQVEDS
Description: as §1

[1] = three separate experiments ± SD

In the case of O=C1Nc2cc(Cl)ccc2C1=Cc1ccc(OCc2cccnc2)cc1 (mixture of isomers) [Compound 5l, (E/Z)-6-Chloro-3-[4-(pyridin-3-ylmethoxy)benzylidene] indolin-2-one], the inhibition at 10 µM (CDK2; 10 µM, CDK2) is reported as 87.7%, the IC50 (CDK2; [1]) is reported as 8.17 ± 0.32 nM and the inhibition at 10 µM (FLT3; 10 µM, FLT3) is reported as 92.6%. For the same compound, the IC50 (FLT3; [1]) was 36.2 ± 1.07 nM.
